According to paper PMC10769483, “Death by a thousand cuts through kinase inhibitor combinations that maximize selectivity and enable rational multitargeting” (eLife, 2023):

Columns and labels:
[1] = tested on: ABL1(F317L), FYN, and LYN; assay: MMS multiple-target analysis, Davis et al. dataset

Row | SMILES | concentration of component in Mixture B required to inhibit all on-targets by at least 90% (CDC2L5 and TRKC) [nM] | concentration of component in Mixture A required to inhibit all on-targets by at least 90% [1] [nM]
1 | Cc1ccc(F)c(NC(=O)Nc2ccc(-c3cccc4[nH]nc(N)c34)cc2)c1 [ABT-869, Linifanib] | 226 | –
2 | COc1cc2c(Oc3ccc(NC(=O)C4(C(=O)Nc5ccc(F)cc5)CC4)cc3F)ccnc2cc1OCCCN1CCOCC1 [EXEL-2880/GSK-1363089, Foretinib] | 40.0 | –
3 | Cc1ccc(NC(=O)c2ccc(CN3CCN(C)CC3)cc2)cc1Nc1nc(-c2cccnc2)cs1 [masatinib, Masitinib] | – | 661
4 | CSc1cccc(Nc2ncc3cc(-c4c(Cl)cccc4Cl)c(=O)n(C)c3n2)c1 [PD-173955] | – | 4.69
